Experimental data: US12331040B2 (Karyopharm Therapeutics Inc., priority 2013, dated 2025)
Like-named read-outs stand apart in the source and are kept apart here.

Tests used:
[1] = system: 3T3 cells; experiment: MTT cell proliferation assay; assay type: cell-based; conditions: Mus musculus
Summary of the method: (§1)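 Cytotoxicity was measured by MTT: OD490 of the solubilized formazan after roughly 4 h with MTT reagent, reported as mean percent inhibition relative to the negative control. Test compounds covered eight concentrations between 1 nM and 30 μM, added to 5,000–10,000 cells per well that had attached overnight.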

[2] = system: MS751 cells; experiment: MTT cell proliferation assay; assay type: cell-based; conditions: Homo sapiens
Summary of the method: as §1

[3] = system: Z138 cells; experiment: MTT cell proliferation assay; assay type: cell-based; conditions: Homo sapiens
Summary of the method: as §1

[4] = system: Molt-4 xenografts; experiment: Molt-4 T-ALL xenograft in SCID mice; assay type: in vivo, mouse; conditions: 100 mg/kg PO twice daily (BID)
Procedure: In this study, the impact of Compounds 667 and 728 on tumor growth was tested using the Molt-4 T-ALL cancer xenograft model in SCID mice. MOLT-4 (CRL-1582) acute lymphoblastic leukemia cells were obtained from ATCC. These cells were grown in RPMI-1640 medium supplemented with 10% fetal bovine serum, 1% penicillin and streptomycin. Cells were sub-cultured by transferring floating cells to a new flask and trypsinizing adherent cells before subculturing at a ratio of 1:4. Molt-4 cells were harvested by centrifugation and counted using a hemocytometer. Cells were resuspended in PBS at a 5×10^7 cells per mL. Cells were placed on ice and mixed with an equal volume of Matrigel (BD Biosciences CB-40234). This mixture was kept on ice and injected into the left flank of mice in a volume of 0.2 mL, equivalent to 5×10^6 cells per mouse. Twenty-four (24) CB-17 SCID mice were inoculated subcutaneously in the left flank with the Molt-4 cells. Treatment was initiated when the tumors reached a mean volume of approximately 100 mm^3. Mice were allocated to three (3) groups of eight (8) mice. Mice were treated with vehicle, Compound 667 or Compound 728. Compounds 667 and 728 (100 mg/kg) were given orally (PO) twice daily (BID) beginning on Day 1. Animal weights and conditions were recorded daily, and tumors were measured on Mondays, Wednesdays and Fridays.

[5] = system: HL-60 cells; experiment: MTT cell proliferation assay; assay type: cell-based; conditions: Homo sapiens
Procedure: (§2) The MTT cell proliferation assay was used to study the cytotoxic properties of the compounds. The assay was performed according to the method described by Roche Molecular Biochemicals, with minor modifications. The assay is based on the cleavage of the tetrazolium salt, MTT, in the presence of an electron-coupling reagent. The water-insoluble formazan salt produced must be solubilized in an additional step. Cells grown in a 96-well tissue culture plate were incubated with the MTT solution for approximately 4 hours. After this incubation period, a water-insoluble formazan dye formed. After solubilization, the formazan dye was quantitated using a scanning multi-well spectrophotometer (ELISA reader). […] The cells were seeded at 5,000-10,000 cells in each well of 96-well plate in 100 μL of fresh culture medium and were allowed to attach overnight. The stock solutions of the compounds were diluted in 100 μL cell culture medium to obtain eight concentrations of each test compound, ranging from 1 nM to 30 μM. […] All optical densities were measured at 490 nm using a Vmax Kinetic Microplate Reader (Molecular Devices). In most cases, the assay was performed in duplicate and the results were presented as a mean percent inhibition to the negative control±SE. The following formula was used to calculate the percent of inhibition: Inhibition (%)=(1−(ODo/OD))×100.
(§3) The M24 cell line is derived from human melanoma cells. The U2OS cell line is a human osteosarcoma cell line expressing wild type p53 and Rb, but lacking p16. The MM1S cell line is a multiple myeloma cell line; the parent cell line, MM.1, was established from peripheral blood of a multiple myeloma patient who had become resistant to steroid-based therapy. The RPMI8226 cell line is derived from human B lymphocyte cells. NHDF cells are normal human dermal fibroblast cells. The MRC-5 cell line is derived from normal lung tissue of a fetus. The PC3 cell line is a human prostate cancer cell line. The DU-145 cell line is a human prostate cancer cell line. The MDA-MB-231 cell line is a human breast adenocarcinoma cell line. The MDA-MB-468 cell line is a human breast carcinoma cell line. HL-60 cells are human promyelocytic leukemia cells. Hep G2 cells are human hepatocellular carcinoma cells. HEP 3B cells are human hepatocellular carcinoma cells. The DLD-1 cell line is a colorectal adenocarcinoma cell line. The HCT-15 cell line is a human colon carcinoma cell line. The Colo-205 cell line is derived from a human adenocarcinoma of the colon. The LoVo cell line is a human colon adenocarcinoma cell line.

[6] = system: MM1S cells; experiment: MTT cell proliferation assay; assay type: cell-based; conditions: Homo sapiens, MM1.S
Procedure: as §2, §3

[7] = system: RPMI8226 cells; experiment: MTT cell proliferation assay; assay type: cell-based; conditions: Homo sapiens, RPMI-8226
Procedure: as §2, §3

[8] = system: MDA-MB-468 tumors; experiment: Antibody staining of resected MDA-MB-468 tumors from treated mice; assay type: in vivo, mouse; conditions: mice bearing MDA-MB-468 tumors; 30 mg/kg orally every day for three weeks
Procedure: Mice bearing MDA-MB-468 tumors were treated for three weeks with 30 mg/kg Compound 525 orally every day. Tumors were resected from the mice and fixed in buffered formalin and put into paraffin blocks. The blocks were sectioned and stained with antibodies against Ki67, Apotag, c-Myc, p-S473-Akt1 or p-S450-Akt1. The cells were imaged with a Nikon microscope.

[9] = system: MDA-MB-231 cells; experiment: MTT cell proliferation assay; assay type: cell-based; conditions: Homo sapiens; MDA-MB-231 cell line; read-out: MTT Assay IC50, MDA-MB-231
Procedure: as §2, §3

[10] = NIH3T3, approximately 64-72 hours incubation, read-out: MTT Assay IC50, 3T3
[11] = MS751, MS751 cells, approximately 64-72 hours incubation, read-out: MTT Assay IC50, MS-751
[12] = Z-138, Z138 cells, approximately 64-72 hours incubation, read-out: MTT Assay IC50, Z-138
[13] = NIH3T3, approximately 64-72 hours incubation, read-out: MTT Assay IC50 3T3
[14] = MS751, MS751 cells, approximately 64-72 hours incubation, read-out: MTT Assay IC50 MS-751
[15] = Z-138, Z138 cells, approximately 64-72 hours incubation, read-out: MTT Assay IC50 Z-138

Structure (SMILES)	IC50 [1, 10] [µM]	IC50 [2, 11] [µM]	IC50 [3, 12] [µM]	IC50 [1, 13] [µM]	IC50 [2, 14] [µM]	IC50 [3, 15] [µM]	other results
Nc1ccc(/C=C/C(=O)NCc2cc3cc(-c4ccc(C(=S)N5CCC(F)(F)CC5)cn4)cc(C(F)(F)F)c3o2)cn1 [Compound 667, (E)-3-(6-aminopyridin-3-yl)-N-((5-(5-(4,4-difluoropiperidine-1-carbonothioyl)pyridin-2-yl)-7-(trifluoromethyl)benzofuran-2-yl)methyl)acrylamide]	> 10	< 0.1	< 0.1	–	–	–	median tumor volume of Molt-4 xenografts (as a percentage of pre-dose tumor volume) [4]: tumor growth inhibition
Nc1ccc(/C=C/C(=O)NCc2cc3cc(-c4ccc(C(=O)N5CC[C@H](F)C5)cc4)cc(C(F)(F)F)c3o2)cn1 [Compound 525, (S,E)-3-(6-aminopyridin-3-yl)-N-((5-(4-(3-fluoropyrrolidine-1-carbonyl)phenyl)-7-(trifluoromethyl)benzofuran-2-yl)methyl)acrylamide]	–	–	–	> 10	0.1 to 5	0.1 to 5	IC50 ([1]; NIH3T3, 72-hour MTT, read-out: 3T3 MTT IC50): > 10 µM; IC50 ([2]; MS751, 72 h, MS751 cells, 72-hour MTT, read-out: MS751 MTT IC50): 0.3 µM; IC50 ([3]; Z-138, 72 h, Z-138 cells, 72-hour MTT, read-out: Z-138 MTT IC50): 0.1 µM; IC50 ([5]; HL-60 cell line, read-out: MTT Assay IC50, HL-60): 0.1 to 5 µM; IC50 ([5]; HL-60 cells, 72-hour MTT, read-out: HL-60 MTT IC50): 1.06 µM; IC50 ([6]; MM1S cell line, read-out: MTT Assay IC50, MM1S): 0.1 to 5 µM; IC50 ([6]; MM1S cells, 72-hour MTT, read-out: MM1S MTT IC50): 0.31 µM; IC50 ([7]; RPMI8226 cell line, read-out: MTT Assay IC50, RPMI8226): 0.1 to 5 µM; IC50 ([7]; RPMI8226 cells, 72-hour MTT, read-out: RPMI8226 MTT IC50): 0.43 µM; PAK4 pathway signaling through Akt (phospho-Akt1) in tumors [8]: overall reductions; apoptosis (Apotag) in tumors [8]: increase; c-Myc in tumors [8]: overall reductions; proliferation (Ki67) in tumors [8]: reduction
Nc1ccc(/C=C/C(=O)NCc2cc3cc(-c4ccc(C(=O)N5CCOCC5)cn4)cc(C(F)(F)F)c3o2)cn1 [Compound 521, (E)-3-(6-aminopyridin-3-yl)-N-((5-(5-(morpholine-4-carbonyl)pyridin-2-yl)-7-(trifluoromethyl)benzofuran-2-yl)methyl)acrylamide]	–	–	–	> 10	< 0.1	< 0.1	IC50 [9]: 0.1 to 5 µM
Nc1ccc(/C=C/C(=O)NCc2cc3cc(-c4ccc(C(=O)NNc5cnccn5)cc4)cc(C(F)(F)F)c3o2)cn1 [Compound 519, (E)-3-(6-aminopyridin-3-yl)-N-((5-(4-(2-(pyrazin-2-yl)hydrazinecarbonyl)phenyl)-7-(trifluoromethyl)benzofuran-2-yl)methyl)acrylamide]	–	–	–	> 10	0.1 to 5	0.1 to 5	–
Nc1ccc(/C=C/C(=O)NCc2cc3cc(-c4ccc(C(=O)NC5(C(F)(F)F)CC5)cn4)cc(C(F)(F)F)c3o2)cn1 [Compound 619, (E)-6-(2-((3-(6-aminopyridin-3-yl)acrylamido)methyl)-7-(trifluoromethyl)benzofuran-5-yl)-N-(1-(trifluoromethyl)cyclopropyl)nicotinamide]	–	–	–	> 10	0.1 to 5	0.1 to 5	–
Nc1ccc(/C=C/C(=O)NCc2cc3cc(-c4ccc(C(=O)N5CCC(F)(F)CC5)cc4)cc(-c4c(F)cc(F)cc4F)c3o2)cn1 [Compound 697, (E)-3-(6-aminopyridin-3-yl)-N-((5-(4-(4,4-difluoropiperidine-1-carbonyl)phenyl)-7-(2,4,6-trifluorophenyl)benzofuran-2-yl)methyl)acrylamide]	0.1 to 5	< 0.1	< 0.1	–	–	–	–
Nc1ccc(/C=C/C(=O)NCc2cc3cc(-c4ncc(C(=O)N5CCC(F)(F)C5)cn4)cc(C(F)(F)F)c3o2)cn1 [Compound 653, (E)-3-(6-aminopyridin-3-yl)-N-((5-(5-(3,3-difluoropyrrolidine-1-carbonyl)pyrimidin-2-yl)-7-(trifluoromethyl)benzofuran-2-yl)methyl)acrylamide]	–	–	–	> 10	0.1 to 5	0.1 to 5	–
Nc1ccc(/C=C/C(=O)NCc2cc3cc(-c4ccc(C(=S)N5CCC(F)(F)CC5)cc4)cc(-c4ccc(F)cc4F)c3o2)cn1 [Compound 706, (E)-3-(6-aminopyridin-3-yl)-N-((7-(2,4-difluorophenyl)-5-(4-(4,4-difluoropiperidine-1-carbonothioyl)phenyl)benzofuran-2-yl)methyl)acrylamide]	0.1 to 5	< 0.1	< 0.1	–	–	–	–
CC1(C)COCCN1C(=O)c1ccc(-c2cc(C(F)(F)F)c3oc(CNC(=O)/C=C/c4ccc(N)nc4)cc3c2)cc1 [Compound 517, (E)-3-(6-aminopyridin-3-yl)-N-((5-(4-(3,3-dimethylmorpholine-4-carbonyl)phenyl)-7-(trifluoromethyl)benzofuran-2-yl)methyl)acrylamide]	–	–	–	> 10	0.1 to 5	0.1 to 5	IC50 [9]: 0.1 to 5 µM
Nc1ccc(/C=C/C(=O)NCc2cc3cc(-c4ccc(C(=O)N5CCC(F)(F)CC5)cn4)cc(-c4ccc5cnccc5c4)c3o2)cn1 [Compound 672, (E)-3-(6-aminopyridin-3-yl)-N-((5-(5-(4,4-difluoropiperidine-1-carbonyl)pyridin-2-yl)-7-(isoquinolin-6-yl)benzofuran-2-yl)methyl)acrylamide]	> 10	0.1 to 5	0.1 to 5	–	–	–	–
Nc1cc2ccc(/C=C/C(=O)NCc3cc4cc(-c5ccc(C(=O)N6CCC(F)(F)CC6)cn5)cc(C(F)(F)F)c4o3)cc2cn1 [Compound 670, (E)-3-(3-aminoisoquinolin-7-yl)-N-((5-(5-(4,4-difluoropiperidine-1-carbonyl)pyridin-2-yl)-7-(trifluoromethyl)benzofuran-2-yl)methyl)acrylamide]	> 10	> 10	> 10	–	–	–	–
CN1C(=O)c2ccc(-c3cc(Cl)c4oc(CNC(=O)/C=C/c5ccc(N)nc5)cc4c3)cc2C1=O [Compound 514, (E)-3-(6-aminopyridin-3-yl)-N-((7-chloro-5-(2-methyl-1,3-dioxoisoindolin-5-yl)benzofuran-2-yl)methyl)acrylamide]	–	–	–	> 10	5 to 10	0.1 to 5	–
